Laboratory results published in US20230263792A1, “USE OF 2,3,5-SUBSTITUTED THIOPHENE COMPOUND FOR PREVENTING, ALLEVIATION, OR TREATING MASTOCYTOSIS” (PHAROS IBIO CO., LTD, priority 2020, published 2023).

Tests used:
[1] = system: c-kit phosphorylation and downstream signaling (p-STAT3, p-ERK1/2) in the c-kit D816V mutant Ba/F3 cell line; experiment: Western blot of c-kit phosphorylation and downstream signaling in c-kit D816V Ba/F3; type: cell-based; settings: 0.1, 1 and 10 μM, 2 hours, FIG. 2
Experimental: The inhibitory activities of control compounds and PHI-101 against c-kit phosphorylation and downstream signaling (p-STAT3, p-ERK1/2) in the c-kit D816V mutant Ba/F3 cell line were measured, and as the control compounds, sunitinib and dasatinib were used.
Specifically, the c-kit D816V mutant Ba/F3 cell line was dispensed at a concentration of 1×10^6 cells/ml, treated with each of the control compounds and PHI-101 at concentrations of 0.1, 1 and 10 μM, and then cultured for 2 hours. Next, lysates of the cells were obtained using lysis buffer (50 mM Tris-HCl pH 7.5, 1% NP40, 1 mM EDTA, 150 mM NaCl, 5 mM, Na3VO4 and 2.5 mM NaF, and a protease inhibitor cocktail). Equal amounts of the cell lysates were electrophoresed using 8% SDS-PAGE gel at 100 V for 1 hour and 30 minutes, and the separated protein was electrically transferred to nitrocellulose membranes. The membranes were blocked with 5% skim milk at room temperature for 30 minutes, and allowed to react with primary antibodies (diluted 1:5,000), including p-c-kit tyrosine 719 (Y719), p-STAT3 tyrosine 705 (Y705) and p-ERK1/2 threonine 202/tyrosine 204 (T202/Y204) at 4° C. for 16 to 20 hours. […] Next, the membranes were washed three times with TBST for 5 minutes each time and treated with a chemiluminescent substrate reagent, and the expression level of the protein was measured by detecting luminescence with an X-ray film in the dark.

KIT (A829P) = biological target: T1, KIT (A829P) (Homo sapiens, UniProt P10721, A829P); experiment: Kinase binding assay (Kd, qPCR detection)
T1 construct: T7 phage fusion or DNA label for qPCR detection; made in house; host or cells: T7 phage in E. coli BL21-derived host, or HEK-293 cells (both named)
T1 sequence (P10721 26-976 A829P): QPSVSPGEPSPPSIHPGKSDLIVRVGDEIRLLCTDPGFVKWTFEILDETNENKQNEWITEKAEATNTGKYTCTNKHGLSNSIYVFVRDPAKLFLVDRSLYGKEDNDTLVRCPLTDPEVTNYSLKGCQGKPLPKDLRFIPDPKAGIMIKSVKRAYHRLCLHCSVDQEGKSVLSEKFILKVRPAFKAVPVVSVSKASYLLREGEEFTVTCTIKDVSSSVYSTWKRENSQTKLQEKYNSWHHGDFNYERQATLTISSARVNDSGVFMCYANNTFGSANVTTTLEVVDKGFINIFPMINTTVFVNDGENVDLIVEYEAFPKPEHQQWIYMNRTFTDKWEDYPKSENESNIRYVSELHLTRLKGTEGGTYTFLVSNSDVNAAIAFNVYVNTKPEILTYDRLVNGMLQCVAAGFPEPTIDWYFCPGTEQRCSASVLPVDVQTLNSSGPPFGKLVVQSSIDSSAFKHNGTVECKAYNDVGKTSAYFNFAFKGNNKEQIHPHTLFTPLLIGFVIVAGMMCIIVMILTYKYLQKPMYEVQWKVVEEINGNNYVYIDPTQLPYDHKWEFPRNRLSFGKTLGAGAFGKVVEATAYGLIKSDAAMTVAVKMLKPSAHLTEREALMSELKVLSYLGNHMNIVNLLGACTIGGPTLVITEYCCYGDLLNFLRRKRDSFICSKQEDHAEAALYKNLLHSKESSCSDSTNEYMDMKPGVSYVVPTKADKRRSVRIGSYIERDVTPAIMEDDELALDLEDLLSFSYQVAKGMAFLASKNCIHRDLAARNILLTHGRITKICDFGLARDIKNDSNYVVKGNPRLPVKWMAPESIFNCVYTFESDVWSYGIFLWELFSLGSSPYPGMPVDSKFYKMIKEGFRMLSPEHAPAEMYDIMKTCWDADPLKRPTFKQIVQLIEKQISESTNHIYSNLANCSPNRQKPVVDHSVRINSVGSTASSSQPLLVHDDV
Experimental: (§1) A kinase-tagged T7 phage strain was prepared from an E. coli host derived from a BL21 strain. E. coli was grown in log-phase, infected with T7 phage, and then incubated with shaking at 32° C. until lysis. The lysates were centrifuged and filtered to remove cell debris. Thereafter, the kinase produced in HEK-293 cells was labeled with DNA for qPCR detection. Streptavidin-coated magnetic beads were treated with biotinylated small molecule ligand for 30 minutes at room temperature to produce affinity resins for kinase assay. The liganded beads were blocked with excess biotin and washed with blocking buffer (SeaBlock(Pierce), 1% BSA, 0.05% Tween 20, 1 mM DTT) to remove unbound ligand and to reduce nonspecific binding. Binding reactions were induced by combining kinase, ligand affinity beads and PHI-101 in 1× binding buffer (20% SeaBlock, 0.17× PBS, 0.05% Tween 20, 6 mM DTT). PHI-101 was prepared as a 111X stock in 100% DMSO. The binding constant (Kd) was determined using an 11-point 3-fold compound dilution series with three DMSO control points. All compounds for Kd measurements were dispensed by acoustic transfer (non-contact dispensing) in 100% DMSO. The compounds were then diluted directly into the assays such that the final concentration of DMSO was 0.9%. All reactions were performed in polypropylene 384-well plates at a final volume of 0.02 ml. The assay plates were incubated at room temperature with shaking for 1 hour and the affinity beads were washed with wash buffer (1× PBS, 0.05% Tween 20). The beads were then re-suspended in elution buffer (1× PBS, 0.05% Tween 20, 0.5 μM non-biotinylated affinity ligand) and incubated at room temperature with shaking for 30 minutes. The kinase concentration in the eluates was measured by qPCR.
(§2) 11-point 3-fold serial dilutions of each test compound were prepared in 100% DMSO at 100×final test concentration and then diluted to 1× in the assay (final DMSO concentration=1%). Most Kd values were determined using a compound top concentration=30,000 nM. If the initial Kd determined was <0.5 nM (lowest concentration tested), the measurement was repeated with a serial dilution starting at a lower top concentration.
(§3) The Kd value of c-kit protein was calculated with a standard dose-response curve (Equation 1) using the Hill equation.
(§4) The Hill Slope was set to −1. Curves were fitted using a non-linear least square fit with the Levenberg-Marquardt algorithm.

KIT (D816H) = biological target: T2, KIT (D816H) (Homo sapiens, UniProt P10721, D816H); experiment: Kinase binding assay (Kd, qPCR detection)
T2 construct: T7 phage fusion or DNA label for qPCR detection; made in house; host or cells: T7 phage in E. coli BL21-derived host, or HEK-293 cells (both named)
T2 sequence (P10721 26-976 D816H): as the sequence (P10721 26-976 A829P) above, with D791H, P804A counted along it
Experimental: as §1, §2, §3, §4

KIT (D816V) = biological target: T3, KIT (D816V) (Homo sapiens, UniProt P10721, D816V); experiment: Kinase binding assay (Kd, qPCR detection)
T3 construct: T7 phage fusion or DNA label for qPCR detection; made in house; host or cells: T7 phage in E. coli BL21-derived host, or HEK-293 cells (both named)
T3 sequence (P10721 26-976 D816V): as the sequence (P10721 26-976 A829P) above, with D791V, P804A counted along it
Experimental: as §1, §2, §3, §4

KIT (L576P) = biological target: T4, KIT (L576P) (Homo sapiens, UniProt P10721, L576P); experiment: Kinase binding assay (Kd, qPCR detection)
T4 construct: T7 phage fusion or DNA label for qPCR detection; made in house; host or cells: T7 phage in E. coli BL21-derived host, or HEK-293 cells (both named)
T4 sequence (P10721 26-976 L576P): as the sequence (P10721 26-976 A829P) above, with L551P, P804A counted along it
Experimental: as §1, §2, §3, §4

KIT (V559D) = biological target: T5, KIT (V559D) (Homo sapiens, UniProt P10721, V559D); experiment: Kinase binding assay (Kd, qPCR detection)
T5 construct: T7 phage fusion or DNA label for qPCR detection; made in house; host or cells: T7 phage in E. coli BL21-derived host, or HEK-293 cells (both named)
T5 sequence (P10721 26-976 V559D): as the sequence (P10721 26-976 A829P) above, with V534D, P804A counted along it
Experimental: as §1, §2, §3, §4

KIT (V559D, T670I) = biological target: T6, KIT (V559D, T670I) (Homo sapiens, UniProt P10721, T670I/V559D); experiment: Kinase binding assay (Kd, qPCR detection)
T6 construct: T7 phage fusion or DNA label for qPCR detection; made in house; host or cells: T7 phage in E. coli BL21-derived host, or HEK-293 cells (both named)
T6 sequence (P10721 26-976 V559D/T670I): as the sequence (P10721 26-976 A829P) above, with V534D, T645I, P804A counted along it
Experimental: as §1, §2, §3, §4

KIT (V559D, V654A) = biological target: T7, KIT (V559D, V654A) (Homo sapiens, UniProt P10721, V559D/V654A); experiment: Kinase binding assay (Kd, qPCR detection)
T7 construct: T7 phage fusion or DNA label for qPCR detection; made in house; host or cells: T7 phage in E. coli BL21-derived host, or HEK-293 cells (both named)
T7 sequence (P10721 26-976 V559D/V654A): as the sequence (P10721 26-976 A829P) above, with V534D, V629A, P804A counted along it
Experimental: as §1, §2, §3, §4

NC(=O)Nc1cc(C#Cc2cccc(F)c2)sc1C(=O)N[C@H]1CCCNC1 [PHI-101]
inhibitory activity against p-c-kit (Y719) phosphorylation [1]: higher inhibitory activity against p-c-kit (Y719) phosphorylation than the control compounds | Kd (KIT (A829P)): 1.3 nM | Kd (KIT (D816H)): 4.8 nM | Kd (KIT (D816V)): 2.1 nM | Kd (KIT (L576P)): 39 nM | Kd (KIT (V559D)): 16 nM | Kd (KIT (V559D, T670I)): 27 nM | Kd (KIT (V559D, V654A)): 26 nM
